# Patent US6677302B2, “Compositions and methods for the treatment of viral disorders” (The Trustees of Boston University, priority 1996, dated 2004)
# Marks after values point to notes of the source that are not given here.
# Key:
# [1] = tested on: A549 (non-small cell cancer); assay: Survival fraction after 72 hours exposure (MTT assay); assay type: cell-based, human
# Protocol: (§1) Growth inhibition was measured by the MTT assay. […] PC-3=prostate cancer; A549=non-small cell cancer; OvCar=ovarian cancer; CaCo=colon cancer; MCF-7=breast cancer; and SW900=non-small cell lung cancer.
# [2] = tested on: CaCo (colon cancer); assay: as above; assay type: cell-based, human
# Protocol: as §1
# [3] = tested on: EBV-TK mRNA in X50-7 (latent large cell lymphoma); assay: EBV-TK mRNA induction in lymphoma cell lines; assay type: cell-based, human; conditions: non-producer (latent) line X50-7; 12 hours, 3 mM
# Protocol: Because of arginine butyrate's ability to induce various genes, its ability to induce EBV-TK mRNA in human lymphoma cell lines was evaluated. FIG. 7 provides bar graphs of the basal levels of TK and the levels following 12 hours of incubation with 3 mM arginine butyrate in 3 lymphoma cell lines: X50-7 a latent large cell lymphoma (B cell); P3RH1 an EBV B-cell producer line derived from Burkitt's lymphoma; and Raji a non-producer line derived from a Burkitt's lymphoma. EBV-TK levels were not increased in the EBV non-producer cell line, Raji, which has a high basal level of TK, but were increased approximately 4 fold in an EBV producer cell line and 10 fold in a non-producer cell line.
# [4] = tested on: fetal globin mRNA; assay: Fetal globin mRNA response in patients; assay type: in vivo, human; conditions: β-hemoglobinopathies; IV 500 to 2,000 mg/kg/day, 2-7 weeks
# Protocol: Eleven pediatric and twelve adult patients with β-hemoglobinopathies have been treated with IV arginine butyrate at a starting dose of 500 mg/kg/day for 2-7 weeks. Dose escalation at the rate of 250 mg/kg/day to a maximum of 2,000 mg/kg/day was permitted.
# [5] = Clinical pharmacokinetics of butyrate infusion; assay type: in vivo, human; conditions: patients with β-hemoglobinopathies
# Protocol: Clinical experience with butyrates have been performed in children with acute myelogenous leukemia in Israel, and in children with neuroblastoma (K. Prasad, Life Sci. 27:1351-58, 1980). […] Eleven pediatric patients and twelve adults with β-hemoglobinopathies were treated with IV arginine butyrate at a starting dose of 500 mg/kg/day for 2-7 weeks. If no side effects were noted, the rate was increased by 250 mg/kg/day to a final rate of 1500 mg/kg/day in 4 patients, and 2000 mg/kg/day in 2 patients. […] This rise in BUN returned to normal within 12 hours of discontinuation of drug, and is thought to be secondary to effect of arginine upon ureagenesis. […] Peak serum levels of butyrate ranged between 0.04-0.05 mM, and butyrate was not detectable 15 minutes after infusion was discontinued. Plasma arginine levels were also rapidly cleared, with a T1/2 of 15 minutes, and baseline arginine levels were reached within 12 hours after discontinuation of infusion.
# Butyric acid is a short chain fatty acid present in foods such as dairy products. Arginine is an amino acid which is commonly used in hyperalimentation solutions in hospitals throughout the country. Butyric acid was obtained from Aldrich, catalog number W-212. L-Arginine is anhydrous. Arginine was combined with butyric acid, pH 5.0-5.5, in sterile, non-pyrogenic water for injection to neutralize the fatty acid. The solution was filtered through a Millipore System at a final concentration for injection of 100 mg/ml or 25 mg/ml. Each lot was pyrogen tested and tested for sterility and purity. […] Since 10% arginine butyrate solution is hypertonic (100 mg/ml), it must be infused through a long or deep IV access to avoid peripheral venous irritation. Arginine butyrate was infused via an infusion pump. European pharmacokinetic studies of arginine butyrate given as a “slow” and 90 minute bolus of 500 mls of a 5% solution (2.5 g/M in two normal volunteers, and found a 15 minute elimination period. Plasma levels from patients with hemoglobinopathies have shown that butyric acid disappears within 5 to 15 minutes after an infusion of up to 2,000 mg/kg/day.
# In vitro, peaks induction of EBV-TK plateaus at serum level of around 1 mM. […] Therefore, dose levels up to 2,000 mg/kg/day, were evaluated in an attempt to reach serum levels of 1 mM. Treatment cycles were of 4 week duration, with 3 weeks on treatment and one week off. Patients were given the standard dose of GCV throughout each 21 day course of arginine butyrate, starting, however, on day 0. Arginine butyrate was given by continuous IV infusion at 500 mg/kg/day for 2 days, at 1,000 mg/kg/day for 2 days, at 1,500 mg/kg/day for 2 days, and thereafter at 2,000 mg/kg/day, or as tolerated, for the rest of the 21 day course. Cycle 2 was begun on Day 29. […]
# [6] = tested on: EBV+ and EBV− cell lines (X50-7, Akata, HPB-ALL, Nalm-6); assay: Growth of EBV+ and EBV− cell lines; assay type: cell-based, human
# Description: In some experiments sodium was used instead of arginine to neutralize butyric acid. […] Cell lines used were X50-7, a latent EBV+ B-cell lymphoma; Akata, a producer EBV+ Burkitt's lymphoma; HPB-ALL, a T-cell line; and Nalm-6, an EBV− B-cell line. Growth curves for X50-7 cells in different concentrations of sodium butyrate are shown in FIG. 8b and the growth curves for HPB-ALL cells in different concentrations of sodium butyrate are shown in FIG. 8c.
# [7] = tested on: K562; assay: DNA fragmentation by flow cytometry; assay type: cell-based, human; conditions: alone, FIG. 3
# Description: It has been shown that sodium butyrate can induce apoptosis in human tumors or tumor cell lines (L. A. Noorduyn et al., Histopathology 21:59, 1992).
# [8] = tested on: n-myc transcript in neuroblastoma cells; assay: Expression of oncogene n-myc transcript; assay type: cell-based, human; conditions: 1 mM
# [9] = tested on: EBV-TK MRNA; assay: EBV-TK mRNA dose response experiments; assay type: cell-based; conditions: in vitro
# Protocol: In vitro, peaks induction of EBV-TK plateaus at serum level of around 1 mM. […] Therefore, dose levels up to 2,000 mg/kg/day, were evaluated in an attempt to reach serum levels of 1 mM. Treatment cycles were of 4 week duration, with 3 weeks on treatment and one week off. Patients were given the standard dose of GCV throughout each 21 day course of arginine butyrate, starting, however, on day 0. Arginine butyrate was given by continuous IV infusion at 500 mg/kg/day for 2 days, at 1,000 mg/kg/day for 2 days, at 1,500 mg/kg/day for 2 days, and thereafter at 2,000 mg/kg/day, or as tolerated, for the rest of the 21 day course. Cycle 2 was begun on Day 29. Patients were given a complete tumor evaluation after every course with subsequent cycles emitted unless disease progressed.
# In some experiments sodium was used instead of arginine to neutralize butyric acid. In dose response experiments, levels of EBV-TK MRNA plateaus at around 1 mM to 3 mM sodium butyrate, inducing levels essentially equivalent to those induced by 1 mM arginine butyrate. […] Similarly, levels of GCV above 30 μM were generally cytocidal to both to EBV+ and EBV− cell lines. Cell lines used were X50-7, a latent EBV+ B-cell lymphoma; Akata, a producer EBV+ Burkitt's lymphoma; HPB-ALL, a T-cell line; and Nalm-6, an EBV− B-cell line. […]
# [10] = tested on: 3 other neuroblastoma cell lines; assay: Growth inhibition over 6 days (RFU); assay type: cell-based, human; conditions: 0.5 and 1.0 mM, FIG. 1a
# [11] = Table 4, 0.5 AB (0.5 mM), 72 hour
substance,measurement,setting,value
arginine butyrate,Survival Fraction,"[1]; Table 3, 0.5 AB (0.5 mM), 72 hours",0.92
same,Survival Fraction,[1]; [11],0.76*
same,Survival Fraction,"[1]; Table 4, .05 AB, 72 hour",0.71*
same,Survival Fraction,"[2]; Table 3, 1.0 AB (1.0 mM), 72 hours",0.60*
same,Survival Fraction,[2]; [11],0.67*
same,Survival Fraction,"[2]; Table 4, .05 AB, 72 hour",0.81*
same,EBV-TK level increase,[3],~10 fold
same,response as judged by increase in fetal globin mRNA,[4],most patients showed response
same,Plasma arginine T1/2,[5]; IV,15 min
same,time after discontinuation of infusion at which butyrate was not detectable,[5]; IV,15 min
same,time to baseline arginine levels after discontinuation of infusion,[5]; IV,≤ 12 h
same,Peak serum levels of butyrate,[5]; IV 500 up to 2000 mg/kg/day,0.04 to 0.05 mM
same,effect on cell growth,[6]; 1 mM,cytostatic to some cell lines and permitted normal cell growth in others
same,effect on cell growth,[6]; 2 mM and 3 mM,cytocidal to most EBV+ and EBV− cell lines
same,DNA fragmentation and cellular shrinkage,[7],DNA fragmentation and cellular shrinkage
same,expression of n-myc transcript,[8],decreased approximately Mold
same,level at which peak induction of EBV-TK plateaus,[9],around 1 mM
same,growth inhibition,[10],dose response growth inhibition
